Assay results as given in patent US4395969A (priority 1981, dated 1983).
Where two headings read alike, the source gives them in different places.

How the values were obtained:
sucker and stickleback [1] = details: cited from earlier work
chinook salmon = details: in vivo
threespine stickleback [2] = test system: threespine stickleback; parameters: species or system Gasterosteus aculeatus; details: in vivo
sucker and stickleback [3] = details: in vivo
in vivo = details: chinook salmon
carp = details: used in ponds; cited from earlier work
[4] = published literature; cited from earlier work
bridgelip sucker [5] = test system: bridgelip sucker; parameters: species or system Catastomus columbianus; details: in vivo
steelhead trout = details: in vivo
threespine stickleback [6] = test system: threespine stickleback; parameters: species or system Gasterosteus aculeatus; details: in vivo, 5760 min
bridgelip sucker [7] = test: Selectivity and safety indices of salmonids versus the bridgelip sucker; format: in vivo, Catastomus columbianus; details: steelhead trout; 24 h
Excerpt: Delineation bioassays determined primarily the LC50 and LC100 of sucker and stickleback and the LC0 and LC50 of salmonids.
The statistical LC1, LC50, and LC99 were interpolated and/or extrapolated using probit graph paper to approximate the LC0, LC50, and LC100 when the latter set of values was not closely determined by single concentrations in a series.
The approximate LC50 and LC100 of the target fishes (threespine and brook sticklebacks and bridgelip and white suckers) are tabulated in Table 1. The 96-hour selectivity and safety indices of selected species of salmonids versus the three-spine stickleback are tabulated in Table 3.
Threespine stickleback, brook stickleback, bridgelip sucker, white sucker, chinook salmon, coho salmon, sockeye salmon, kokanee, Kamloops trout, cutthroat trout, and brook trout were treated with various concentrations of 2, 2, 2, 1-tetrachloroethyl diethyl phosphate and at various temperatures to determine approximate selectivity and safety indices. The approximate LC50 and LC100 of the target fishes (threespine and brook sticklebacks and bridgelip and white suckers) are tabulated in Table 5. The 96-hour selectivity and safety indices of selected species of salmonids versus the threespine stickleback are tabulated in Table 7.

For `C=C(C)[C@H]1Cc2c(ccc3c2O[C@@H]2COc4cc(OC)c(OC)cc4[C@@H]2C3=O)O1` [rotenone], the “control of sucker and stickleback numbers by spot poisoning” value (sucker and stickleback [1]; background) is given as “ineffective in controlling sucker and stickleback numbers”.

With `O=C(O)C(Cl)Cl` [dichloroacetic acid, reference compound] the mortality (chinook salmon) was “suffered no mortalities”.

With `CCOP(=O)(OCC)OC(Cl)=C(Cl)Cl` [2,2,1-trichlorovinyl diethyl phosphate] the LC50 (threespine stickleback [2]) was 0.008 µg/mL, the LC100 (threespine stickleback [2]) was roughly 11 µg/L and the toxicity to stickleback (threespine stickleback [2]) was “almost as toxic to stickleback as 2,2,2,1-tetrachloroethyl diethyl phosphate”. For the same compound, the “activity relative to the dichloro-compounds” value (sucker and stickleback [3]) was “about 100 times”, the LC0 (chinook salmon; chinook salmon) was “about 16 μg/l” and the LC50 (in vivo) was 0.018 to 0.02 µg/mL.

For `COP(=O)(OC)OC=C(Cl)Cl` [O,O-dimethyl O-(2,2-dichlorovinyl) phosphate], the “selectivity for stickleback or suckers” value (sucker and stickleback [1]; in vivo) is listed as “no selectivity for stickleback or suckers”, the injury to carp (carp) is listed as “without injuring carp” and the carcinogenicity / residues [4] is listed as “none suggest that DDVP is a carcinogen or concentrates residues”.

With “O,O-diethyl S-(2,2-dichlorovinyl) thiophosphate” the “activity and selectivity of the two chemicals” value (bridgelip sucker [5]) was “very similar”, the “concentration of 100% mortality of sucker” value (bridgelip sucker [5]) was 0.1 mg/L and the “selectivity/specificity for sucker and stickleback” value (sucker and stickleback [3]) was “extremely selective for suckers and stickleback”. For the same compound, the “concentration below which no mortality occurred in steelhead” value (steelhead trout) was “below 1.0 mg/l” and the harm to salmonids (salmonids; 24-hour bioassays, about 15 C) was “harmless to salmonids”.

For `CCOP(=O)(OCC)OC(=C(Cl)Cl)P(=O)(OCC)OCC` [2,2-dichloro-1-diethyl phosphonovinyl diethyl phosphate], the LC50 (threespine stickleback [2]) was 0.008 µg/mL, the “Safety index (LC0/LC100)” value (threespine stickleback [6]) was 0.9 and the LC50 (in vivo) was 0.018 to 0.02 µg/mL.

With `CCOP(=O)(OCC)OC(Cl)CCl` (stereo not shown) [1,2-dichloroethyl diethyl phosphate] the “activity and selectivity of the two chemicals” value (bridgelip sucker [5]) was “very similar”, the “concentration of 100% mortality of sucker” value (bridgelip sucker [5]) was 0.1 mg/L and the “concentration of almost 100% mortality of sucker” value (bridgelip sucker [5]) was 0.3 mg/L. The safety index (bridgelip sucker [7]) was 10, the selectivity index (bridgelip sucker [7]) was 35 and the “selectivity/specificity for sucker and stickleback” value (sucker and stickleback [3]) was “extremely selective for suckers and stickleback”. The “concentration below which almost no mortality occurred in trout” value (steelhead trout) was “below 3.0 mg/l”, the “concentration below which no mortality occurred in steelhead” value (steelhead trout) was “below 5.0 mg/l” and the harm to salmonids (salmonids; in vivo) was “harmless to salmonids”.
